In US20170296682A1, “DERIVATIVES OF DIBENZOTHIOPHENE IMAGING OF alpha-7 NICOTINIC ACETYLCHOLINE RECEPTORS” (THE JOHNS HOPKINS UNIVERSITY, priority 2015, published 2017):
Values joined by “and” are separate entries in the source; they are usually repeats but may differ in a detail not shown here. Equal entries are not always repeated. Where two headings read alike, the source gives them in different places.

How the values were obtained:
[1] = target: α7-nAChR (Rattus norvegicus, UniProt Q05941); assay: biochemical; type: binding
Chain of α7-nAChR (Rattus norvegicus, UniProt Q05941) (Q05941 23-502): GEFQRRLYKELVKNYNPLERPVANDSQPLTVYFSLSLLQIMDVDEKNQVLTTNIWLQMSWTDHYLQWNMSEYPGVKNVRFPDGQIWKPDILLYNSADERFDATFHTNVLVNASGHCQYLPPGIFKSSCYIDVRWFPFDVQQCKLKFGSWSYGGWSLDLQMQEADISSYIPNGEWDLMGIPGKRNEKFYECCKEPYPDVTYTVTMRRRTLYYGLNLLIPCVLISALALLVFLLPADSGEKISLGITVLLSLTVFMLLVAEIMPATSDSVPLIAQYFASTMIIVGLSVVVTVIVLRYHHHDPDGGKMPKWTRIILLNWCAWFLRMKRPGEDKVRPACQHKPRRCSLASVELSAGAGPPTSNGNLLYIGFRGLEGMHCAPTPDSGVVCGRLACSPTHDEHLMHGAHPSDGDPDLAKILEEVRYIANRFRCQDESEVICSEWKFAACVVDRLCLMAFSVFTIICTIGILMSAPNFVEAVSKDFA

[2] = target: rat α7-nAChRs (Rattus norvegicus, UniProt Q05941); type: cell-based
Chain of rat α7-nAChRs (Q05941 23-502): as above

[3] = type: binding; details: read-out: human Ki α7-nAChR
[4] = target: T1, α7-nAChR (Mus musculus, UniProt P49582); details: in vivo
T1 sequence (P49582 23-502): as the sequence (Q05941 23-502) above, with A402T counted along it

[5] = tested on: a7-nAChR; details: in vivo
[6] = male, CD-1, mouse, in vivo, iv
Description: (§1) Baboon arterial blood samples were withdrawn at 5, 10, 20, 30, 60, and 90 min after ^18-FASEM injection, and plasma was analyzed by HPLC. Male CD-1 mice (25-26 g) were injected via the lateral tail veins with 37 MBq of high-specific-activity ^18-FASEM. The mice were killed by cervical dislocation at 2 and 30 min after injection, and a terminal blood sample was obtained.

[7] = target: α7-nAChR (Homo sapiens, UniProt P36544); details: in vivo
Chain of α7-nAChR (Homo sapiens, UniProt P36544) (P36544 23-502): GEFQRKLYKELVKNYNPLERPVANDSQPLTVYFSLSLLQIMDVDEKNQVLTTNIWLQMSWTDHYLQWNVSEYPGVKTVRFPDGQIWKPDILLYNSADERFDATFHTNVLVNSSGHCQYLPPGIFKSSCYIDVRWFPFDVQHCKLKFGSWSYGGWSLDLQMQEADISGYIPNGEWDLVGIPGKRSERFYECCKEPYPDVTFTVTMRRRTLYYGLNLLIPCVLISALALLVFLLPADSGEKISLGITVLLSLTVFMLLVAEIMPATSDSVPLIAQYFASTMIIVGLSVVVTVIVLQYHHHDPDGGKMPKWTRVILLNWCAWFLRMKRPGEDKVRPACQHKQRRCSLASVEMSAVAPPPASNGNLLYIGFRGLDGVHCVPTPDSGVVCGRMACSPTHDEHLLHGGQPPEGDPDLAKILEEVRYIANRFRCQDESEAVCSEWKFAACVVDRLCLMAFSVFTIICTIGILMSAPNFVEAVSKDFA

[8] = male, human, in vivo
[9] = 18F-ASEM radiometabolite analysis in mice
Description: as §1

[10] = 18F-ASEM radiometabolite analysis in baboon; details: baboons, 90 min after injection
Description: as §1

[11] = target: T1, α7-nAChR; parameters: studied in mice, pigs, and non-human primates as potential α7-nAChR probes; host or cells: mouse brain (cortex) in vivo; species or system mice; details: in vivo
[12] = target: T1, α7-nAChR; parameters: The brains were rapidly removed and dissected on ice; tissue Charles River Laboratories; host or cells: brain of live male CD-1 mice; species or system CD-1 mice; details: in vivo
[13] = target: α2β2-nAChR (Rattus norvegicus, UniProt P12389+P12390); assay: Heteromeric nAChR binding assay, transfected HEK293 membranes, [3H]epibatidine; details: stably transfected HEK293 cells, [3H]epibatidine (0.5 nM)
Chain of α2β2-nAChR (P12389 28-511): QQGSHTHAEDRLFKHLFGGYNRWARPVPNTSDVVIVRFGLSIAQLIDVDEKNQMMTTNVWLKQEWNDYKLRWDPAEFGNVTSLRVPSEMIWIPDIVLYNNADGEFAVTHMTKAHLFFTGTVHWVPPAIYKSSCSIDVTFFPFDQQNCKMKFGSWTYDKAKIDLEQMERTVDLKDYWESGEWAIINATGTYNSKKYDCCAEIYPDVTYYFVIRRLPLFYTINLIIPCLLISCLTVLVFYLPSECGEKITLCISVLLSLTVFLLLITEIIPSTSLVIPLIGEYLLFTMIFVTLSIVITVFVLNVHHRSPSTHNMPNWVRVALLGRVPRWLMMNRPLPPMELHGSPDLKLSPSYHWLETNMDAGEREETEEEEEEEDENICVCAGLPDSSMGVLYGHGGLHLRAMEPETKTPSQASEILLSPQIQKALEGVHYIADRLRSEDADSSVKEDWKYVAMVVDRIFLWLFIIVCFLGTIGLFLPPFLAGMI
Chain of α2β2-nAChR (P12390 25-500): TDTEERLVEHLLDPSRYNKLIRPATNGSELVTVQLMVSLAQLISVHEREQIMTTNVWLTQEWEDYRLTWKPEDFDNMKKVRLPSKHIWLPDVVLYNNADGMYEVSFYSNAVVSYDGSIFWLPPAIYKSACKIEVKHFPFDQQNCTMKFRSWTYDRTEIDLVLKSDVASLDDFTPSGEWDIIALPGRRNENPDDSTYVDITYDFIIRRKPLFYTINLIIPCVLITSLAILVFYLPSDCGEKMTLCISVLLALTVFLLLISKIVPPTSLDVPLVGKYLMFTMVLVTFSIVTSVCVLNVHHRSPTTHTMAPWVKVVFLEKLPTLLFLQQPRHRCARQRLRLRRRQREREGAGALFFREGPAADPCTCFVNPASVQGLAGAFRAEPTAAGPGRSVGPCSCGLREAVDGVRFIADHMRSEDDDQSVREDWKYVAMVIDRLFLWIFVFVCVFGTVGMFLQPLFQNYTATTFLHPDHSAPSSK

[14] = target: T2, α2β4-nAChR (Rattus norvegicus, UniProt P12389+P12392); assay: as above; details: stably transfected HEK293 cells, [3H]epibatidine (0.5 nM)
T2 construct: expressed in transfected cells
T2 sequence (P12389 28-511): as the sequence (P12389 28-511) above
T2 sequence (P12392 21-495): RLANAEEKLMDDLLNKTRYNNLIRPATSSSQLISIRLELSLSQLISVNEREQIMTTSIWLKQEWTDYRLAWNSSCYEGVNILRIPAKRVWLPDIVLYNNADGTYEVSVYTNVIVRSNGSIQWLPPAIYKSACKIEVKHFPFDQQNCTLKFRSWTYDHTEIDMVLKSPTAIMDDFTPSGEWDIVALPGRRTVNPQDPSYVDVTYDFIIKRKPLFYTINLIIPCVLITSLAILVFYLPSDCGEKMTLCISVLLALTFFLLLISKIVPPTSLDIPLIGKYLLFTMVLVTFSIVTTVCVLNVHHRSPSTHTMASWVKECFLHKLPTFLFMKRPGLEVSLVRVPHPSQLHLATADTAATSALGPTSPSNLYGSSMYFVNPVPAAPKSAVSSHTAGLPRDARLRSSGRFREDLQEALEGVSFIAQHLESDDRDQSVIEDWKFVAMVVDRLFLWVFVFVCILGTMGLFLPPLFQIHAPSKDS

[15] = target: α3β2-nAChR (Rattus norvegicus, UniProt P04757+P12390); assay: as above; details: stably transfected HEK293 cells, [3H]epibatidine (0.5 nM)
Chain of α3β2-nAChR (P04757 26-499): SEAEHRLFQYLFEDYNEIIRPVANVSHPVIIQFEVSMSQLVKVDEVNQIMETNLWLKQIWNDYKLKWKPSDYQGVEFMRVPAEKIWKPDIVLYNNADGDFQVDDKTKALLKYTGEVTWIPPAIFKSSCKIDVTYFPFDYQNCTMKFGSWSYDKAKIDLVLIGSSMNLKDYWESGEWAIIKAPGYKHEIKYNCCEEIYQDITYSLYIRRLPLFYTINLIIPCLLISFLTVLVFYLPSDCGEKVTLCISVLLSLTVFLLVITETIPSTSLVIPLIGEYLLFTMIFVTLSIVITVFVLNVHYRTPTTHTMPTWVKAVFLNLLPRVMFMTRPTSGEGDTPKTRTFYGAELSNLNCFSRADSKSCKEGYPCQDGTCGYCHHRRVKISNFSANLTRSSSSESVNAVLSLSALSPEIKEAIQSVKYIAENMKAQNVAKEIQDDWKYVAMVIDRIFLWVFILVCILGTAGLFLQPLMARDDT
Chain of α3β2-nAChR (P12390 25-500): as the sequence (P12390 25-500) above

[16] = target: T3, α3β4-nAChR (Rattus norvegicus, UniProt P04757+P12392); assay: as above; details: stably transfected HEK293 cells, [3H]epibatidine (0.5 nM)
T3 construct: expressed in transfected cells
T3 sequence (P04757 26-499): as the sequence (P04757 26-499) above
T3 sequence (P12392 21-495): as the sequence (P12392 21-495) above

[17] = target: α4β2-nAChR (Rattus norvegicus, UniProt P09483+P12390); assay: as above
Chain of α4β2-nAChR (P09483 31-630): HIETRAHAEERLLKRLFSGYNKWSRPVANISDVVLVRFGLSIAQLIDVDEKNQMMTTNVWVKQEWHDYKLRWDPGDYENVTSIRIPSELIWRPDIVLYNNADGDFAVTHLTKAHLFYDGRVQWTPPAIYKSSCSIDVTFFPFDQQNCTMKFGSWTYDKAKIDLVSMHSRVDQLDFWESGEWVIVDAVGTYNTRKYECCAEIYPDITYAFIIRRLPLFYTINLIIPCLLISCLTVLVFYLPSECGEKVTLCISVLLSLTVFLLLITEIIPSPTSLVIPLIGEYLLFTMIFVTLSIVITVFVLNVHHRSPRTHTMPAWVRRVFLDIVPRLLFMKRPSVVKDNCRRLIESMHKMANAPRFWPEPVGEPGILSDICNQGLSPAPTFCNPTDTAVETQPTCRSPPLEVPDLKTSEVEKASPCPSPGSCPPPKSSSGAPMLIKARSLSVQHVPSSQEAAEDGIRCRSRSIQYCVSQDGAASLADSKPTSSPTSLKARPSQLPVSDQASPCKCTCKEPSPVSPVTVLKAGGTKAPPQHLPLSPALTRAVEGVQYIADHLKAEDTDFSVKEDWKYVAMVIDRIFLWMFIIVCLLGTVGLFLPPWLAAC
Chain of α4β2-nAChR (P12390 25-500): as the sequence (P12390 25-500) above

[18] = target: T4, α4β4-nAChR (Rattus norvegicus, UniProt P09483+P12392); assay: as above; details: stably transfected HEK293 cells, [3H]epibatidine (0.5 nM)
T4 construct: expressed in transfected cells
T4 sequence (P09483 31-630): as the sequence (P09483 31-630) above
T4 sequence (P12392 21-495): as the sequence (P12392 21-495) above

[19] = target: T5, Human 5-HT3 (Homo sapiens, UniProt P46098); assay: 5-HT3(h) binding assay, recombinant HEK293 cells, [3H]GR65630
T5 sequence (P46098 24-478): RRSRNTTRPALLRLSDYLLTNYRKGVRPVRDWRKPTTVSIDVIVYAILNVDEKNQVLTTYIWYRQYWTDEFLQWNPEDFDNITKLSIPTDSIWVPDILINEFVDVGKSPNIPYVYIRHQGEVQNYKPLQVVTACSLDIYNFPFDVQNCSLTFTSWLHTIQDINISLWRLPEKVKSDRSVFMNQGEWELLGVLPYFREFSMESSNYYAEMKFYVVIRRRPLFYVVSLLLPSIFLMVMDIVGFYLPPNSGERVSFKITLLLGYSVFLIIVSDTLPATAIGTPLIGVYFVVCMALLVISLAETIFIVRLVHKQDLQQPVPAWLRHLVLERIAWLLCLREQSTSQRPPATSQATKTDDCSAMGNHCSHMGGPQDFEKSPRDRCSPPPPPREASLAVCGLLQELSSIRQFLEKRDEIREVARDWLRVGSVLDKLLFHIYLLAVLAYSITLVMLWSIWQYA

[20] = target: rat a7-nAChR (Rattus norvegicus, UniProt Q05941); assay: biochemical; type: binding
Chain of rat a7-nAChR (Q05941 23-502): as the sequence (Q05941 23-502) above

## O=S1(=O)c2cc(N3CCN4CCC3CC4)ccc2-c2cccc([18F])c21 [[^18F]7a]
[1]; Ki α7-nAChR (text)
  Ki: 0.4 nM
[2]
  acetylcholine-induced whole-cell current restored, of baseline: 60%
[3]
  Ki: 0.3 nM
[4]
  baseline-to-blockade ratio: 13
  specific binding value: 94%
[5]
  Regional BPND ([VT/VND]−1): 3.9 to 6.6 and 3.9-6.6
  nonspecific binding: less than 30%
  specific binding: 80%-90%
[5]; male, baboon (Papio anubis)
  brain uptake: 500 % standardized uptake value [SUV]
  lowest observed VT: 14 mL/mL
[6]
  unchanged parent in the mouse brain: at least 95%
[7]
  binding potential BPND: ~1
  test-retest variability (TRV): 10.8±5.1%
[7]; male, human
  VT, lower regions: G15 ml/ml
  VT, relatively high regions: 920 ml/ml
  peak brain uptake: 400 %SUV
  time of peak brain uptake: 10 to 15 min
[8]
  time of plasma TAC peak: ≤ 1 min
[8]; 0.5 h
  parent metabolized: 52.6±12.9%
[8]; 1.5 h
  parent metabolized: 83.5±9.7%
[9]; after intravenous administration
  unchanged parent in the mouse blood: approximately 1%
[9]; mice, 30 min after injection
  combined radiometabolites in the plasma: approximately 99%
[10]
  combined radiometabolites in the plasma: 70%
[11]
  regional brain uptake in mutant DISC1 versus control mice: significantly lower in all regions studied
[12]
  Approximate BPND, Coll: 8.0 and 8.0 ± 1.6
  Approximate BPND, Ctx: 5.3 and 5.3 ± 1.2
  Approximate BPND, Hipp: 5.5 and 5.5 ± 1.7
  BPND in control mice: 8 and 5.3-8.0
[12]; iv
  ratios of tissues to cerebellum: 10

## O=S1(=O)c2cc(N3CCN4CCC3CC4)ccc2-c2cccc(F)c21 [Compound 7a, 3-(1,4-Diazabicyclo[3.2.2]nonan-4-yl)-6-fluorodibenzo[b,d]thiophene 5,5-Dioxide]
[1]; read-out: Ki α7-nAChR
  Ki: 0.37 nM and 0.45 nM
[1]; read-out: Ki α7-nAChR (text)
  Ki: 0.4 nM
[13]
  Ki: > 10 µM
[14]
  Ki: 4 µM
[15]
  Ki: 1000 nM
[16]
  Ki: 709 nM
[17]
  selectivity α7/α4β2: 1370
[17]; stably transfected HEK293 cells, [3H]epibatidine (0.5 nM)
  Ki: 562 nM
[18]
  Ki: 1000 nM
[19]
  selectivity α7/5HT3: 561
[19]; Human 5-HT3 recombinant/HEK293 cells, [3H]GR65630 (0.35 nM)
  Ki: 230 nM
[20]
  Ki: 0.3 nM
[2]
  block of acetylcholine activation: nearly completely blocked activation by acetylcholine
[4]
  behavioral / locomotor activity changes: Neither behavioral nor locomotor activity changes were observed
